Measured values reported in PMC7179653 (Antimicrobial Agents and Chemotherapy, 2020).

What was measured:
[1] = MAD study: safety and tolerability (TEAEs, laboratory safety tests); assay type: in vivo, human; conditions: for TEAE: Catheter site pain / TEAE: Diarrhea / TEAE: Ecchymosis / TEAE: Headache / TEAE: Infusion site extravasation / TEAE: Injection site erythema / TEAE: Injection site extravasation / TEAE: Injection site hemorrhage / TEAE: Injection site injury / TEAE: Injection site pain / TEAE: Medical device site erythema (erythema at the ECG patch sites) / TEAE: Nausea / TEAE: Phlebitis / TEAE: Scratch / TEAE: Vessel puncture site hemorrhage / Withdrawn due to AE / ≥1 TEAE / ≥1 drug-related TEAE / ≥1 serious TEAE: n = 6
Protocol: The MAD study consisted of three parts (Fig. 1). […] Participants were enrolled in two sequential cohorts (cohort 1, followed by cohort 2). […] Participants were also enrolled in two sequential cohorts (cohort 3, followed by cohort 4). […] A washout period of approximately 24 h between treatments was provided. A sentinel dosing strategy was employed in both studies. […] In all cohorts, escalation to the next dose occurred after a safety review of the previous cohort. In the MAD study, sentinel dosing was performed in part 3, wherein participants were evaluated for safety up to 24 h after administration of the first drug combination (or placebo) on day 3, prior to enrolling additional participants. Safety assessments included monitoring of AEs, laboratory safety tests (hematology, serum chemistry, and urinalysis), 12-lead ECG (discrete recordings and 24-h Holter recording), and vital signs (blood pressure, pulse rate, and body temperature). In the SAD study, safety assessments were performed predose at screening, at day 1, postdose periodically on days 1, 2, and 7 (follow-up), and at early withdrawal, if relevant. […] In the MAD study, safety assessments were done predose at screening, at day 2, postdose periodically on days 1, 2, 4, 7, and 8, on days 13 to 15 (follow-up), and at early withdrawal, if relevant. […] On all other days, a single predose sample was collected for pharmacokinetic evaluation prior to the morning infusion. Blood was collected into lithium-heparin tubes and stored at a nominal –80°C temperature until analysis.

[2] = set-up: method as in unpublished data; conditions: ref unpublished data; cited from earlier work
[3] = MAD parts 1 and 2, 8,000 mg (single dose)

NCCONC(=O)[C@@H]1CC[C@@H]2CN1C(=O)N2OS(=O)(=O)O [Nacubactam]
participants reporting AEs ([1]; MAD monotherapy phase (parts 1 and 2), 13 of the 24 participants): 54.2%
total number of AEs ([1]; MAD monotherapy phase (parts 1 and 2), 24 participants): 48
TEAE: Catheter site pain ([1]; MAD parts 1 and 2, 1,000 mg): 1/1
TEAE: Diarrhea ([1]; MAD parts 1 and 2, 1,000 mg): 0 n/E
TEAE: Ecchymosis ([1]; MAD parts 1 and 2, 1,000 mg): 1/1
TEAE: Headache ([1]; MAD parts 1 and 2, 1,000 mg): 1/1
TEAE: Infusion site extravasation ([1]; MAD parts 1 and 2, 1,000 mg): 1/1
TEAE: Injection site erythema ([1]; MAD parts 1 and 2, 1,000 mg): 1/1
TEAE: Injection site extravasation ([1]; MAD parts 1 and 2, 1,000 mg): 0 n/E
TEAE: Injection site hemorrhage ([1]; MAD parts 1 and 2, 1,000 mg): 0 n/E
TEAE: Injection site injury ([1]; MAD parts 1 and 2, 1,000 mg): 0 n/E
TEAE: Injection site pain ([1]; MAD parts 1 and 2, 1,000 mg): 0 n/E
TEAE: Medical device site erythema (erythema at the ECG patch sites) ([1]; MAD parts 1 and 2, 1,000 mg): 0 n/E
TEAE: Nausea ([1]; MAD parts 1 and 2, 1,000 mg): 0 n/E
TEAE: Phlebitis ([1]; MAD parts 1 and 2, 1,000 mg): 0 n/E
TEAE: Scratch ([1]; MAD parts 1 and 2, 1,000 mg): 0 n/E
TEAE: Vessel puncture site hemorrhage ([1]; MAD parts 1 and 2, 1,000 mg): 0 n/E
Withdrawn due to AE ([1]; MAD parts 1 and 2, 1,000 mg): 0 n
≥1 TEAE ([1]; MAD parts 1 and 2, 1,000 mg): 4/8
≥1 drug-related TEAE ([1]; MAD parts 1 and 2, 1,000 mg): 2/2
≥1 serious TEAE ([1]; MAD parts 1 and 2, 1,000 mg): 0 n
TEAE: Catheter site pain ([1]; MAD parts 1 and 2, 2,000 mg): 0 n/E
TEAE: Diarrhea ([1]; MAD parts 1 and 2, 2,000 mg): 0 n/E
TEAE: Ecchymosis ([1]; MAD parts 1 and 2, 2,000 mg): 0 n/E
TEAE: Headache ([1]; MAD parts 1 and 2, 2,000 mg): 0 n/E
TEAE: Infusion site extravasation ([1]; MAD parts 1 and 2, 2,000 mg): 0 n/E
TEAE: Injection site erythema ([1]; MAD parts 1 and 2, 2,000 mg): 0 n/E
TEAE: Injection site extravasation ([1]; MAD parts 1 and 2, 2,000 mg): 1/1
TEAE: Injection site hemorrhage ([1]; MAD parts 1 and 2, 2,000 mg): 0 n/E
TEAE: Injection site injury ([1]; MAD parts 1 and 2, 2,000 mg): 0 n/E
TEAE: Injection site pain ([1]; MAD parts 1 and 2, 2,000 mg): 0 n/E
TEAE: Medical device site erythema (erythema at the ECG patch sites) ([1]; MAD parts 1 and 2, 2,000 mg): 0 n/E
TEAE: Nausea ([1]; MAD parts 1 and 2, 2,000 mg): 0 n/E
TEAE: Phlebitis ([1]; MAD parts 1 and 2, 2,000 mg): 0 n/E
TEAE: Scratch ([1]; MAD parts 1 and 2, 2,000 mg): 0 n/E
TEAE: Vessel puncture site hemorrhage ([1]; MAD parts 1 and 2, 2,000 mg): 0 n/E
Withdrawn due to AE ([1]; MAD parts 1 and 2, 2,000 mg): 0 n
≥1 TEAE ([1]; MAD parts 1 and 2, 2,000 mg): 2/3
≥1 drug-related TEAE ([1]; MAD parts 1 and 2, 2,000 mg): 2/2
≥1 serious TEAE ([1]; MAD parts 1 and 2, 2,000 mg): 0 n
TEAE: Catheter site pain ([1]; MAD parts 1 and 2, 4,000 mg): 0 n/E
TEAE: Diarrhea ([1]; MAD parts 1 and 2, 4,000 mg): 0 n/E
TEAE: Ecchymosis ([1]; MAD parts 1 and 2, 4,000 mg): 0 n/E
TEAE: Headache ([1]; MAD parts 1 and 2, 4,000 mg): 1/1
TEAE: Infusion site extravasation ([1]; MAD parts 1 and 2, 4,000 mg): 0 n/E
TEAE: Injection site erythema ([1]; MAD parts 1 and 2, 4,000 mg): 1/1
TEAE: Injection site extravasation ([1]; MAD parts 1 and 2, 4,000 mg): 1/1
TEAE: Injection site hemorrhage ([1]; MAD parts 1 and 2, 4,000 mg): 2/2
TEAE: Injection site injury ([1]; MAD parts 1 and 2, 4,000 mg): 2/2
TEAE: Injection site pain ([1]; MAD parts 1 and 2, 4,000 mg): 3/3
TEAE: Medical device site erythema (erythema at the ECG patch sites) ([1]; MAD parts 1 and 2, 4,000 mg): 4/4
TEAE: Nausea ([1]; MAD parts 1 and 2, 4,000 mg): 0 n/E
TEAE: Phlebitis ([1]; MAD parts 1 and 2, 4,000 mg): 0 n/E
TEAE: Scratch ([1]; MAD parts 1 and 2, 4,000 mg): 1/1
TEAE: Vessel puncture site hemorrhage ([1]; MAD parts 1 and 2, 4,000 mg): 2/2
Withdrawn due to AE ([1]; MAD parts 1 and 2, 4,000 mg): 0 n
≥1 TEAE ([1]; MAD parts 1 and 2, 4,000 mg): 6/36
≥1 drug-related TEAE ([1]; MAD parts 1 and 2, 4,000 mg): 3/3
≥1 serious TEAE ([1]; MAD parts 1 and 2, 4,000 mg): 0 n
TEAE: Catheter site pain [1, 3]: 0 n/E
TEAE: Diarrhea [1, 3]: 0 n/E
TEAE: Ecchymosis [1, 3]: 0 n/E
TEAE: Headache [1, 3]: 0 n/E
TEAE: Infusion site extravasation [1, 3]: 0 n/E
TEAE: Injection site erythema [1, 3]: 0 n/E
TEAE: Injection site extravasation [1, 3]: 0 n/E
TEAE: Injection site hemorrhage [1, 3]: 0 n/E
TEAE: Injection site injury [1, 3]: 0 n/E
TEAE: Injection site pain [1, 3]: 0 n/E
TEAE: Medical device site erythema (erythema at the ECG patch sites) [1, 3]: 0 n/E
TEAE: Nausea [1, 3]: 0 n/E
TEAE: Phlebitis [1, 3]: 0 n/E
TEAE: Scratch [1, 3]: 0 n/E
TEAE: Vessel puncture site hemorrhage [1, 3]: 0 n/E
Withdrawn due to AE [1, 3]: 0 n
≥1 TEAE [1, 3]: 1/1
≥1 drug-related TEAE [1, 3]: 0 n/E
≥1 serious TEAE [1, 3]: 0 n
tolerability ([1]; all single doses up to 8,000 mg and multiple doses up to 4,000 mg q8h): well tolerated
serious AEs ([1]; alone (50 to 8,000 mg) or coadministered with meropenem (2,000 mg each), both studies): no serious AEs were reported
effect on kidney function ([1]; nacubactam alone, validated measures of renal function and exploratory urine kidney biomarkers): no significant effects on kidney function
fraction unbound [2]: 0.98
protein binding [2]: 2%
